From ChEMBL document CHEMBL1129040, “Inhibitors of acyl CoA:cholesterol acyltransferase” (J Med Chem, 1996) come the findings set out here.

SMILES strings stand for the structures.

In assay [1] the test system is Cricetinae gen. sp. In words: In vivo activity to reduce liver cholesterol esters (hamster) at 5 mg/kg/day. The class given is functional, Cricetulus griseus.
Assay [2] has as its target T1, Sterol O-acyltransferase 1 (Rattus norvegicus, UniProt O70536).
T1 sequence (O70536 whole entry): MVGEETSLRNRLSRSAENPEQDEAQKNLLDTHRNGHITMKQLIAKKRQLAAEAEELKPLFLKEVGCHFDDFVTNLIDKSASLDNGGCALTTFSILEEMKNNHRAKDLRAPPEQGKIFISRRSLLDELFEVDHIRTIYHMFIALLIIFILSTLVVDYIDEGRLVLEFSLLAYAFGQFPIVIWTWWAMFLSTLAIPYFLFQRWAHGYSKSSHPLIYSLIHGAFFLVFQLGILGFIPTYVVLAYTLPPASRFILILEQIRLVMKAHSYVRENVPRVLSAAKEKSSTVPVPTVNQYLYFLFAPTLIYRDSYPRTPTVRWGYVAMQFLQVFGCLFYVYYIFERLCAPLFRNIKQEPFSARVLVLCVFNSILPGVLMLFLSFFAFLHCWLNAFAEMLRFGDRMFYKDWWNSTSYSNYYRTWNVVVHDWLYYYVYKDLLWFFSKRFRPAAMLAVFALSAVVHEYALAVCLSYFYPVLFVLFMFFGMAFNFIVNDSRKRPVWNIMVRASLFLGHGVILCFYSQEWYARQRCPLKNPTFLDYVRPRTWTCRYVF
In words: (§1) In vitro inhibitory activity against Acyl coenzyme A:cholesterol acyltransferase 1 from rat hepatic microsomes at 10 uM.

The subject of assay [3] is Cricetinae gen. sp. Kind of assay: In vivo activity to reduce liver cholesterol esters (hamster) at 1 mg/kg/day. The class given is functional, Cricetulus griseus.
In assay [4] the test system is Cricetinae gen. sp. In words: In vivo activity to reduce liver cholesterol esters (hamster) at 50 mpk. The class given is functional, Cricetulus griseus.
Assay [5] addresses T1, Sterol O-acyltransferase 1. Kind of assay: In vitro inhibitory activity against acyl-coenzyme A:cholesterol acyltransferase 1 from rat hepatic microsomes.
Assay [6] concerns the target T2, Sterol O-acyltransferase 1 (Rattus norvegicus) (UniProt O70536).
T2 sequence (whole entry): T1 sequence (O70536 whole entry)
Kind of assay: In vitro inhibitory activity against acyl-coenzyme A:cholesterol acyltransferase 1 from rat hepatic microsomes at 10 uM.

Assay [7] has as its target T2, Sterol O-acyltransferase 1 (Rattus norvegicus). The assay is described as §1.

As usually defined, the IC50 is the concentration at which inhibition is half-maximal. As for `O=C(N[C@H]1c2ccccc2C[C@H]1c1ccc(O)cc1)C(c1ccccc1)c1ccccc1`, the Reduction in assay [1] and in assay [3] was 0% each time. Besides, the IC50 in assay [2] is 13000 nM.
On to `O=C(NC(Cc1ccccc1)c1cccc(O)c1)C(c1ccccc1)c1ccccc1` (stereo not given), for which the Reduction in assay [4] is on record as 19%.
Same read-out and setting: the same measure for `Nc1ccc([C@H]2CCc3ccccc3[C@H]2NC(=O)C(c2ccccc2)c2ccccc2)cc1`: 57%.
One may read the inhibition as the change of the read-out against control, counted positive when it falls. Low readings indicate a response near the control, high ones a response far below the control. As to `O=C(N[C@H]1c2ccccc2CC[C@@H]1c1cccc(O)c1)C(c1ccccc1)c1ccccc1`, the IC50 in assay [5] is 700 nM. This compound also yielded an inhibition in assay [6] of 98%. In assay [4], this compound came in with a Reduction of 0%.
In turn, `O=C(NC(Cc1ccccc1)c1ccc(O)cc1)C(c1ccccc1)c1ccccc1` (stereo not given) displayed an inhibition in assay [6] of 95%. The compound further yielded a Reduction in assay [4] of 69%.
In assay [4], `O=C(N[C@@H]1c2ccccc2OC[C@@H]1c1ccc(O)cc1)C(c1ccccc1)c1ccccc1` registered a Reduction of 0%.
`O=C(N[C@@H]1c2ccc(O)cc2CC[C@@H]1c1ccccc1)C(c1ccccc1)c1ccccc1` gave an IC50 in assay [5] of 900 nM. Besides, in assay [6], the inhibition worked out at 87%. Further, the Reduction in assay [4] is recorded as 45%.
Take `O=C(N[C@H]1c2ccccc2OC[C@@H]1c1ccc(O)cc1)C(c1ccccc1)c1ccccc1`: the Reduction in assay [4] is 0%.
Regarding `O=C(NC(Cc1ccc(O)cc1)c1ccc(O)cc1)C(c1ccccc1)c1ccccc1` (stereo not given), in assay [4], the Reduction is 40%.
On the same count and under the same terms, the same measure for `O=C(N[C@@H]1c2cccc(O)c2CC[C@@H]1c1ccccc1)C(c1ccccc1)c1ccccc1`: 0%.
The same measure, in the same setting: the same measure for `COc1cccc([C@H]2CCc3ccccc3[C@@H]2NC(=O)C(c2ccccc2)c2ccccc2)c1`: 0%; for `COc1ccc([C@H]2CCc3ccccc3[C@H]2NC(=O)C(c2ccccc2)c2ccccc2)cc1`: 0%.
`COc1ccc([C@H]2CCCC[C@@H]2NC(=O)C(c2ccccc2)c2ccccc2)cc1` came in with a concentration for half-maximal inhibition (IC50) in assay [5] of 100 nM. The compound further yielded an inhibition in assay [6] of 100%. Besides, the Reduction in assay [4] stood at 0%.
Regarding `COc1ccc(CC(NC(=O)C(c2ccccc2)c2ccccc2)c2ccccc2)cc1` (stereo not given), the inhibition in assay [6] turned out to be 92%. Further, the Reduction in assay [4] turned out to be 65%.
`O=C(NC1CCCc2ccccc21)C(c1ccccc1)c1ccccc1` (stereo not given) yielded an inhibition in assay [7] of 37%.
`O=C(N[C@@H]1c2ccccc2CC[C@@H]1c1cccc(O)c1)C(c1ccccc1)c1ccccc1`: the midpoint of inhibition in assay [5], the IC50, lay at 1800 nM. In addition, the inhibition in assay [6] came to 77%. In assay [4], this compound had a Reduction of 0%.
For `O=C(N[C@@H]1c2ccccc2CC[C@@H]1c1ccc(O)cc1)C(c1ccccc1)c1ccccc1`, in assay [5], the IC50 was 350 nM. The inhibition in assay [6] turned out to be 91%. The Reduction in assay [4] is given as 16%.
Take `COc1ccc(CC(NC(=O)C(c2ccccc2)c2ccccc2)c2ccc(OC)cc2)cc1` (stereo not given): the inhibition in assay [6] is 40%. In assay [4], this compound displayed a Reduction of 32%.
As for `O=C(NC1c2ccccc2CC1c1ccc(O)cc1)C(c1ccccc1)c1ccccc1` (racemic), the Reduction worked out at 63% in assay [1] and 27% in assay [3]. In assay [2], this compound came in with an IC50 of 100 nM.
In assay [6], `O=C(NC(Cc1ccc(O)cc1)c1ccccc1)C(c1ccccc1)c1ccccc1` (stereo not given) came in with an inhibition of 92%.
On to `COc1ccc([C@H]2CCc3ccccc3[C@@H]2NC(=O)C(c2ccccc2)c2ccccc2)cc1`, for which the Reduction in assay [4] is given as 0%.
Consider `O=C(N[C@H]1c2ccccc2CC[C@@H]1c1ccc(O)cc1)C(c1ccccc1)c1ccccc1`, for which, in assay [5], the IC50 turned out to be 700 nM. Moreover, the inhibition in assay [6] is 93%. In addition, the Reduction in assay [4] was determined as 58%.
`O=C(NC(Cc1ccc(O)cc1)c1cccc(O)c1)C(c1ccccc1)c1ccccc1` (stereo not given) returned a Reduction in assay [4] of 0%.
On to `O=C(N[C@H]1c2ccc(O)cc2CC[C@@H]1c1ccccc1)C(c1ccccc1)c1ccccc1`, for which the half-maximal inhibitory concentration (IC50) in assay [5] turned out to be 900 nM. In assay [6], this compound yielded an inhibition of 92%. The Reduction in assay [4] is reported as 0%.
With `O=C(N[C@H]1c2ccccc2CCC[C@@H]1c1ccc(O)cc1)C(c1ccccc1)c1ccccc1`, in assay [4], the Reduction is given as 61%.
On the same count and under the same terms, for `O=C(N[C@@H]1c2ccccc2CC[C@@H]1c1ccncc1)C(c1ccccc1)c1ccccc1` the value was 39%.
In turn, `O=C(N[C@@H]1c2ccccc2CCC[C@@H]1c1ccc(O)cc1)C(c1ccccc1)c1ccccc1` registered a Reduction in assay [4] of 0%.
Same read-out and setting: the same measure for `COc1cccc([C@H]2CCc3ccccc3[C@H]2NC(=O)C(c2ccccc2)c2ccccc2)c1`: 0%.
The same measure, in the same setting: the same measure for `O=C(N[C@H]1c2cccc(O)c2CC[C@@H]1c1ccccc1)C(c1ccccc1)c1ccccc1`: 0%.
Regarding `O=C(N[C@@H]1c2ccccc2C[C@@H]1c1ccc(O)cc1)C(c1ccccc1)c1ccccc1`, the IC50 in assay [5] turned out to be 100 nM; in assay [2], 40 nM. Also, the Reduction in assay [1] came to 88%; in assay [4], 91%; in assay [3], 73%. Also, the inhibition in assay [6] amounted to 99%.
Regarding `O=C(N[C@H]1c2cc(O)ccc2CC[C@@H]1c1ccccc1)C(c1ccccc1)c1ccccc1`, the IC50 in assay [5] turned out to be 1300 nM. The inhibition in assay [6] amounted to 94%. The compound also returned a Reduction in assay [4] of 78%.
For the compound `O=C(N[C@@H]1c2c(O)cccc2CC[C@@H]1c1ccccc1)C(c1ccccc1)c1ccccc1`, the Reduction in assay [4] came out at 20%.
In the case of `COc1ccc(C(Cc2ccccc2)NC(=O)C(c2ccccc2)c2ccccc2)cc1` (stereo not given), in assay [6], the inhibition came to 88%. The same compound yielded a Reduction in assay [4] of 69%.
Consider `COc1ccc([C@H]2CCc3ccc(OC)cc3[C@H]2NC(=O)C(c2ccccc2)c2ccccc2)cc1`, for which the Reduction in assay [4] was 0%.
Regarding `COc1ccc2c(c1)[C@H](NC(=O)C(c1ccccc1)c1ccccc1)[C@@H](c1ccc(O)cc1)CC2`, the midpoint of inhibition in assay [5], the IC50, lay at 400 nM. In assay [6], the inhibition is 98%. In assay [4], the Reduction is given as 97%.
On the same counts, the results for `O=C(N[C@@H]1c2cc(O)ccc2CC[C@@H]1c1ccccc1)C(c1ccccc1)c1ccccc1` are 2400 nM, 84% and 38%.
`O=C(N[C@H]1c2ccccc2CC[C@@H]1c1ccccc1O)C(c1ccccc1)c1ccccc1` showed a Reduction in assay [4] of 0%.
Turning to `COc1ccc([C@H]2CCCC[C@H]2NC(=O)C(c2ccccc2)c2ccccc2)cc1`, half-maximal inhibition in assay [5] (IC50) required 3000 nM. The compound also yielded an inhibition in assay [6] of 77%. The same compound registered a Reduction in assay [4] of 20%.
For `O=C(N[C@H]1c2ccccc2C[C@@H]1c1ccc(O)cc1)C(c1ccccc1)c1ccccc1`, in that order: 230 nM, 99% and 52%.
On the same counts, the results for `O=C(N[C@H]1CCCC[C@@H]1c1ccc(O)cc1)C(c1ccccc1)c1ccccc1` are 600 nM, 94% and 0%.
In assay [4], `COc1ccccc1[C@H]1CCc2ccccc2[C@H]1NC(=O)C(c1ccccc1)c1ccccc1` (stereo in doubt; trans) gave a Reduction of 0%.
The same measure, in the same setting: for `COc1ccc2c(c1)C(NC(=O)C(c1ccccc1)c1ccccc1)CCC2` (stereo not given) the value was 0%.
In assay [5], `O=C(N[C@@H]1CCCC[C@@H]1c1ccc(O)cc1)C(c1ccccc1)c1ccccc1` yielded a 50% inhibitory concentration (IC50) of 3000 nM. The compound further displayed an inhibition in assay [6] of 80%. Further, in assay [4], the Reduction is on record as 0%.
As to `O=C(N[C@@H]1c2cc(O)ccc2CC[C@@H]1c1ccc(O)cc1)C(c1ccccc1)c1ccccc1`, the Reduction in assay [4] stood at 0%.
